Assay results from ChEMBL document CHEMBL5236606, “Synthesis, Structure-Activity Relationships, and In Vivo Evaluation of Novel C-17 Amine Derivatives Based on GSK3640254 as HIV-1 Maturation Inhibitors with Broad Spectrum Activity” (J Med Chem, 2022).
Values after ≈ are worked out from the molar mass of the structure shown.

Columns and labels:
[1] = Fold resistance, ratio of EC50 for antiviral activity against wild type HIV-1 NLRepRlucP373S infected in human MT2 cells assessed as inhibition of viral growth in presence of 10% FBS and 40% human serum supplemented with 27mg/mL of human serum albumin to EC50 for antiviral activity against wild type HIV-1 NLRepRlucP373S infected in human MT2 cells assessed as inhibition of viral growth; type: functional, Human immunodeficiency virus 1
[2] = Oral bioavailability in Beagle dog at 5 mg/kg administered as spray-dried dispersion in 99.5% water/0.5% methocel E4M by LC-MS/MS analysis; type: ADME, organism-based, Canis lupus familiaris; conditions: in vivo
[3] = Volume of distribution at steady state in Beagle dog at 1 mg/kg, iv by LC-MS/MS analysis; type: ADME, organism-based, Canis lupus familiaris; conditions: in vivo, read-out: Vdss
Albumin = Albumin (Homo sapiens, UniProt P02768); assay: Protein binding in human serum albumin assessed as fraction bound at 53 nM incubated for 1 hrs by ultracentrifugation method; type: ADME, cell-free; conditions: read-out: PPB (converted)
[4] = tested on: Human immunodeficiency virus 1; assay: Antiviral activity against wild type HIV-1 NLRepRlucP373S harboring V370A mutant infected in human MT2 cells assessed as inhibition of viral growth measured after 4 to 5 days by Dual luciferase reporter assay; type: functional, organism-based; conditions: Human immunodeficiency virus 1, NLRepRlucP373S
[5] = tested on: Human immunodeficiency virus 1; assay: Antiviral activity against wild type HIV-1 NLRepRlucP373S harboring V362I/V370A mutant infected in human MT2 cells assessed as inhibition of viral growth measured after 4 to 5 days by Dual luciferase reporter assay; type: functional, organism-based; conditions: Human immunodeficiency virus 1, NLRepRlucP373S
[6] = Oral bioavailability in Sprague-Dawley rat at 5 mg/kg by LC-MS/MS analysis; type: ADME, organism-based; conditions: in vivo
[7] = AUCt in Beagle dog at 5 mg/kg, po administered as solution in 98% citrate buffer/2% sulfobutylether-beta-cyclodextrin by LC-MS/MS analysis; type: ADME, organism-based, Canis lupus familiaris; design: dose 5 mg/kg, route po; conditions: in vivo
[8] = Metabolic stability in human liver microsomes assessed as half life at 0.5 uM in presence of NADPH by LC-MS/MS analysis; type: ADME, Microsome
[9] = tested on: Human immunodeficiency virus 1; assay: Antiviral activity against wild type HIV-1 NLRepRlucP373S harboring A326T/V362I/V370A mutant infected in human MT2 cells assessed as inhibition of viral growth measured after 4 to 5 days by Dual luciferase reporter assay; type: functional, organism-based; conditions: Human immunodeficiency virus 1, NLRepRlucP373S
[10] = Cmax in Beagle dog at 5 mg/kg, po administered as spray-dried dispersion in 99.5% water/0.5% methocel E4M by LC-MS/MS analysis; type: ADME, organism-based, Canis lupus familiaris; design: dose 5 mg/kg, route po; conditions: in vivo
[11] = tested on: Human immunodeficiency virus 1; assay: Antiviral activity against wild type HIV-1 NLRepRlucP373S harboring T332S/V362I/prR41G mutant infected in human MT2 cells assessed as inhibition of viral growth measured after 4 to 5 days by Dual luciferase reporter assay; type: functional, organism-based; conditions: Human immunodeficiency virus 1, NLRepRlucP373S
[12] = Metabolic stability in dog liver microsomes assessed as half life at 0.5 uM in presence of NADPH by LC-MS/MS analysis; type: ADME, Canis lupus familiaris, Microsome
[13] = MRT in Sprague-Dawley rat at 1 mg/kg, iv by LC-MS/MS analysis; type: ADME, organism-based; conditions: in vivo
[14] = Clearance in Sprague-Dawley rat at 1 mg/kg, iv by LC-MS/MS analysis; type: ADME, organism-based; conditions: in vivo
[15] = Metabolic stability in rat liver microsomes assessed as half life at 0.5 uM in presence of NADPH by LC-MS/MS analysis; type: ADME, Microsome
[16] = Oral bioavailability in Beagle dog at 5 mg/kg administered as solution in 98% citrate buffer/2% sulfobutylether-beta-cyclodextrin by LC-MS/MS analysis; type: ADME, organism-based, Canis lupus familiaris; conditions: in vivo
[17] = Half life in Beagle dog at 1 mg/kg, iv by LC-MS/MS analysis; type: ADME, organism-based, Canis lupus familiaris; conditions: in vivo
[18] = Cytotoxicity against human MT2 cells assessed as reduction in cell viability; type: toxicity, cell-based
[19] = Cmax in Sprague-Dawley rat at 5 mg/kg, po by LC-MS/MS analysis; type: ADME, organism-based; design: dose 5 mg/kg, route po; conditions: in vivo
[20] = tested on: Human immunodeficiency virus 1; assay: Antiviral activity against wild type HIV-1 NLRepRlucP373S harboring R361K/V362I/L363M mutant infected in human MT2 cells assessed as inhibition of viral growth measured after 4 to 5 days by Dual luciferase reporter assay; type: functional, organism-based; conditions: Human immunodeficiency virus 1, NLRepRlucP373S
[21] = tested on: Human immunodeficiency virus 1; assay: Antiviral activity against wild type HIV-1 NLRepRlucP373S harboring deltaV370 mutant infected in human MT2 cells assessed as inhibition of viral growth measured after 4 to 5 days by Dual luciferase reporter assay; type: functional, organism-based; conditions: Human immunodeficiency virus 1, NLRepRlucP373S
[22] = AUCt in Beagle dog at 5 mg/kg, po administered as spray-dried dispersion in 99.5% water/0.5% methocel E4M by LC-MS/MS analysis; type: ADME, organism-based, Canis lupus familiaris; design: dose 5 mg/kg, route po; conditions: in vivo
[23] = Volume of distribution at steady state in Sprague-Dawley rat at 1 mg/kg, iv by LC-MS/MS analysis; type: ADME, organism-based; conditions: in vivo, read-out: Vdss
[24] = Clearance in Beagle dog at 1 mg/kg, iv by LC-MS/MS analysis; type: ADME, organism-based, Canis lupus familiaris; conditions: in vivo
[25] = MRT in Beagle dog at 1 mg/kg, iv by LC-MS/MS analysis; type: ADME, organism-based, Canis lupus familiaris; conditions: in vivo
[26] = Solubility of the compound in FeSSIF at pH 5.0; type: ADME
[27] = tested on: Human immunodeficiency virus 1; assay: Antiviral activity against wild type HIV-1 NLRepRlucP373S infected in human MT2 cells assessed as inhibition of viral growth measured after 4 to 5 days in presence of 10% FBS and 40% human serum supplemented with 27 mg/mL of human serum albumin by Dual luciferase reporter assay; type: functional, organism-based; conditions: Human immunodeficiency virus 1, NLRepRlucP373S
[28] = Solubility of compound in FaSSIF at pH 6.5; type: ADME
[29] = AUCt in Sprague-Dawley rat at 5 mg/kg, po by LC-MS/MS analysis; type: ADME, organism-based; design: dose 5 mg/kg, route po; conditions: in vivo
[30] = tested on: Human immunodeficiency virus 1; assay: Antiviral activity against wild type HIV-1 NLRepRlucP373S infected in human MT2 cells assessed as inhibition of viral growth measured after 4 to 5 days by Dual luciferase reporter assay; type: functional, organism-based; conditions: Human immunodeficiency virus 1, NLRepRlucP373S
[31] = Cmax in Beagle dog at 5 mg/kg, po administered as solution in 98% citrate buffer/2% sulfobutylether-beta-cyclodextrin by LC-MS/MS analysis; type: ADME, organism-based, Canis lupus familiaris; design: dose 5 mg/kg, route po; conditions: in vivo
[32] = Half life in Sprague-Dawley rat at 1 mg/kg, iv by LC-MS/MS analysis; type: ADME, organism-based; conditions: in vivo

Chain of Albumin (P02768 whole entry): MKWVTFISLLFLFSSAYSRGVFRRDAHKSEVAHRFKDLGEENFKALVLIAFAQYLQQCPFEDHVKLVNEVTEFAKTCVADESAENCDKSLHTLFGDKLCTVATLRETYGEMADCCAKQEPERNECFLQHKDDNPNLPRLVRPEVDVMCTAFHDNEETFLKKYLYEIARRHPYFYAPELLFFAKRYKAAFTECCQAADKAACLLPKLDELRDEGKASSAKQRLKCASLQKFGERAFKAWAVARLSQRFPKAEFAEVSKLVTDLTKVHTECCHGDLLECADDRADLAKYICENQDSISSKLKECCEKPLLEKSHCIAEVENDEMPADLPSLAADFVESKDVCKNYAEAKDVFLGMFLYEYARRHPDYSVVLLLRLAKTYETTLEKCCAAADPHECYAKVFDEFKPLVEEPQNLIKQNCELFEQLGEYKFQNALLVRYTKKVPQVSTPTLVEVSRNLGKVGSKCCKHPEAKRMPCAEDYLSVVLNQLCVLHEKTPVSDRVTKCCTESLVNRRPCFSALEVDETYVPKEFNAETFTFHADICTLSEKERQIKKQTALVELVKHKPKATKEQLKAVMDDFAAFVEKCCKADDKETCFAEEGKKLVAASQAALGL

C=C(C)[C@@H]1CC[C@]2(NCC[C@]3(O)CC[C@@H](S(C)(=O)=O)CC3)CC[C@]3(C)[C@H](CC[C@@H]4[C@@]5(C)CC=C(C6=CC[C@](CF)(C(=O)O)CC6)C(C)(C)[C@@H]5CC[C@]43C)[C@@H]12
fold change (FC) [1]: 5.8 | bioavailability [2]: 31% | Vd [3]: 0.31 L/kg | fraction unbound at 1 h, 0.053 µM (Albumin): 0.11 | EC50 [4]: 3 nM | EC50 [5]: 2 nM | bioavailability [6]: 24% | AUC(0-t) [7]: 23.3 µM·h | half-life at 0.5 µM [8]: 83 min | EC50 [9]: 4.3 nM | Cmax [10]: 1960 nM | EC50 [11]: 6.4 nM | half-life at 0.5 µM [12]: > 120 min | MRT [13]: 3.8 h | clearance [14]: 3.5 mL/min/kg | half-life at 0.5 µM [15]: 85 min | bioavailability [16]: 21% | half-life [17]: 804 min | CC50 [18]: 21 µM | Cmax [19]: 830 nM | EC50 [20]: 4.5 nM | EC50 [21]: 5.1 nM | AUC(0-t) [22]: 35.3 µM·h | Vd [23]: 0.8 L/kg | clearance [24]: 0.38 mL/min/kg | MRT [25]: 13.2 h | solubility [26]: > 700 µM | EC50 [27]: 9.3 nM | solubility [28]: 21 µM (≈ 16.2 µg/mL) | AUC(0-t) [29]: 8.11 µM·h | EC50 [30]: 1.6 nM | Cmax [31]: 1610 nM | half-life [32]: 252 min
